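Each compound was tested at five concentrations against cells in 96-well plates for 48 hours. GI50 is the concentration that inhibits growth by half.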 Active and inactive are the calls of the source. No stated cut-off is given here; in the data, active = GI50 up to about 1.1 µM and inactive = higher.

The values below come from ChEMBL document CHEMBL1201862, “PubChem BioAssay data set” (2004).

Common to all, as to assay: NCI tumour cell line growth inhibition, 48 h
Assay [1] relates to A549.
Assay [2] deals with CCRF-CEM.
Assay [3] has as its system SK-MEL-28.
In assay [4] the test system is 786-0.
Assay [5] relates to OVCAR-3.
Assay [6] has as its system MDA-N.
Assay [7] relates to OVCAR-5.
The test system of assay [8] is UACC-62.
For assay [9], the system named is K562.
Assay [10] has as its system SNB-75.
Assay [11] relates to RXF 393.
The subject of assay [12] is NCI/ADR-RES.
The subject of assay [13] is SF-268.
Assay [14] has as its system EKVX.
Assay [15] concerns HL-60.
Assay [16] concerns MDA-MB-435.
The test system of assay [17] is NCI-H460.
In assay [18] the test system is UO-31.
The test system of assay [19] is MDA-MB-231.
Assay [20] concerns SR.

Consider `COC(=O)c1c(C(=O)OC)c2ccccn2c1-c1cc(C)cc2c1C(=O)C=CC2=O`, for which the GI50 in [1] was 16.3 µM (inactive); in assay [2], 0.796 µM (active); in assay [3] it was 12.9 µM (inactive); in assay [4], 5.48 µM (inactive); in assay [5] it was 11 µM (inactive); in assay [6], 10.5 µM (inactive). The GI50 in assay [7] was 12.1 µM (inactive); in assay [8], 11.7 µM (inactive); in [9] it was 2.67 µM (inactive); in assay [10], 16.4 µM (inactive); in assay [11], 14.1 µM (inactive); in [12], 15.6 µM (inactive). Besides, the GI50 is 13.9 µM (inactive) in assay [13]; 14.8 µM (inactive) in assay [14]; 2.24 µM (inactive) in assay [15]; 11.4 µM (inactive) in [16]; > 10 µM (inactive) in assay [17]; 2.38 µM (inactive) in [18]. The figures for the GI50 in assay [19] and in assay [20] were 10.4 µM (inactive) and 3.93 µM (inactive), respectively.

Regarding `CCOP(=O)(OCC)C(c1ccc(F)cc1)N(C(=O)NC(F)(F)F)c1cccc(C(F)(F)F)c1` (stereo not given), the GI50 was 82.2 µM (inactive) in [1]; > 100 µM (inactive) in assay [2]; > 100 µM (inactive) in assay [3]; > 10 µM (inactive) in [4]; > 100 µM (inactive) in assay [5]; > 100 µM (inactive) in assay [6]. For the same compound, the GI50 was > 100 µM (inactive) in [7]; 72.8 µM (inactive) in assay [8]; 50.2 µM (inactive) in [9]; 46.9 µM (inactive) in assay [10]; 52.8 µM (inactive) in assay [11]; 82.8 µM (inactive) in assay [12]. Also, the GI50 was > 100 µM (inactive) in assay [13]; > 100 µM (inactive) in assay [14]; 43.9 µM (inactive) in assay [15]; > 100 µM (inactive) in assay [16]; 91.4 µM (inactive) in assay [17]; 94.8 µM (inactive) in [18]. Also, the GI50 in [19] is > 100 µM (inactive); in assay [20] it was 75.3 µM (inactive).

As to `CC(CSC(=N)N)C(N)=O` (stereo not given), the GI50 in [1], in assay [2], in assay [3], in [4], in [5] and in assay [6] was > 100 µM (inactive) throughout. In addition, the GI50 in [7], in [8], in assay [9], in assay [10], in assay [11] and in assay [12] was > 100 µM (inactive) throughout. The GI50 in [13], in [14], in assay [15], in assay [16], in assay [17] and in [18] was > 100 µM (inactive) in each case. Moreover, the GI50 in assay [19] and in assay [20] was > 100 µM (inactive) in each case.

`O=c1c2cc(-c3ccccc3)cnc2sn1-c1ccc(Oc2ccccc2)cc1`: the GI50 in [1] is 19.5 µM (inactive); in assay [2], 27.3 µM (inactive); in assay [3], > 100 µM (inactive); in [4], 17.3 µM (inactive); in assay [5], 31.5 µM (inactive); in assay [6], 28.4 µM (inactive). In addition, the GI50 in [7] is 65.2 µM (inactive); in [8], 26.9 µM (inactive); in assay [9] it was > 100 µM (inactive); in [10], 32 µM (inactive); in assay [11], 19.1 µM (inactive); in [12] it was 27 µM (inactive). In addition, the GI50 in assay [13] was 51.4 µM (inactive); in [14], 68.5 µM (inactive); in assay [15], > 100 µM (inactive); in assay [16] it was 41.1 µM (inactive); in assay [17], > 100 µM (inactive); in assay [18], 47 µM (inactive). Further, the GI50 is 14.5 µM (inactive) in assay [19] and > 100 µM (inactive) in assay [20].

In the case of `C=C(Cl)[C@](Cl)(CBr)CC[C@@H](Br)C(C)(C)Cl` [HALOMON], the GI50 in [1] is 2.12 µM (inactive); in [2], 14.4 µM (inactive); in [3] it was 1.73 µM (inactive); in [4] it was 0.147 µM (active); in assay [5] it was 0.791 µM (active); in [6] it was 0.959 µM (active). In addition, the GI50 was 1.56 µM (inactive) in assay [7]; 3.19 µM (inactive) in assay [8]; 0.916 µM (active) in [9]; 0.449 µM (active) in assay [10]; 0.121 µM (active) in [11]; 1.69 µM (inactive) in assay [12]. Moreover, the GI50 in assay [13] is 0.515 µM (active); in [14] it was 3.64 µM (inactive); in assay [15] it was 0.421 µM (active); in assay [16] it was 1.59 µM (inactive); in [17], 0.955 µM (active); in assay [18], 0.959 µM (active). The GI50 is 1.16 µM (inactive) in [19] and 7.21 µM (inactive) in assay [20].
